Tests used:
[1] = target: Protein farnesyltransferase subunit beta/geranylgeranyltransferase type-1 subunit alpha (Homo sapiens, UniProt P49354+P49356); assay: In Vitro PFT Activity Assay; conditions: pH 7.7; 30 °C
Experimental: In vitro inhibition assay of human PFT was done by measuring the incorporation of [3H] FPP (Amersham Biosciences, Piscataway, NJ) into wild type H-Ras (PFT). The 60,000g post-microsomal supernatant from Daudi cells was incubated in the presence of increasing concentration of compound, H-Ras substrate, and [3H] FPP. Samples were TCA-precipitated and then filtered onto glass fiber filters; unbound [3H] FPP was washed through the filters. Samples were counted on a scintillation counter and activity compared to vehicle controls to obtain IC50 values.

[2] = target: Protein farnesyltransferase/geranylgeranyltransferase type-1 subunit alpha / Protein farnesyltransferase subunit beta (Plasmodium falciparum, UniProt Q5EI73+Q5EI74); assay: PfPFT IC50 Determination; conditions: pH 7.5; 37 °C
Experimental: Assays for PfPFT activity were performed with a PFT-specific scintillation assay (SPA) kit (Amersham Biosciences, Piscataway, NJ). An amount of 1 uM biotinylated lamin B peptide was used. The concentration of [3H]farnesyl pyrophosphate (FPP) was increased beyond manufacturer recommendations to 1 uM. IC50 values were calculated using linear regression analysis of the plots of [3H]FPP prenylation versus concentration of compounds.

Sequence of Protein farnesyltransferase/geranylgeranyltransferase type-1 subunit alpha / Protein farnesyltransferase subunit beta (Q5EI73 1-521): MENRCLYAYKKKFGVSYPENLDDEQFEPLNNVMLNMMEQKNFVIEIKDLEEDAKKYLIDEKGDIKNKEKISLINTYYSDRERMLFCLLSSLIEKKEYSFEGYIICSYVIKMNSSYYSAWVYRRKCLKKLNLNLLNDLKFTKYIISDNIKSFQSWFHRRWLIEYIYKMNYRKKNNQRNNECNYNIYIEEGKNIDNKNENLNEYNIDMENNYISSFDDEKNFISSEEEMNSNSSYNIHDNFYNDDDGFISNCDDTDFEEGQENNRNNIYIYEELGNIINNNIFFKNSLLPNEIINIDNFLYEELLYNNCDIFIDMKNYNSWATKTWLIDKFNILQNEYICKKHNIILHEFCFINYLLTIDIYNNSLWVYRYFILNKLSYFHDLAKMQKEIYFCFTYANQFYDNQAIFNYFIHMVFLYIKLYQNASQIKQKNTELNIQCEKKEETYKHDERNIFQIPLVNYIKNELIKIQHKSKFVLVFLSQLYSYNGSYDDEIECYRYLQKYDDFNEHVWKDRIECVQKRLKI
Sequence of Protein farnesyltransferase/geranylgeranyltransferase type-1 subunit alpha / Protein farnesyltransferase subunit beta (Q5EI74 1-923): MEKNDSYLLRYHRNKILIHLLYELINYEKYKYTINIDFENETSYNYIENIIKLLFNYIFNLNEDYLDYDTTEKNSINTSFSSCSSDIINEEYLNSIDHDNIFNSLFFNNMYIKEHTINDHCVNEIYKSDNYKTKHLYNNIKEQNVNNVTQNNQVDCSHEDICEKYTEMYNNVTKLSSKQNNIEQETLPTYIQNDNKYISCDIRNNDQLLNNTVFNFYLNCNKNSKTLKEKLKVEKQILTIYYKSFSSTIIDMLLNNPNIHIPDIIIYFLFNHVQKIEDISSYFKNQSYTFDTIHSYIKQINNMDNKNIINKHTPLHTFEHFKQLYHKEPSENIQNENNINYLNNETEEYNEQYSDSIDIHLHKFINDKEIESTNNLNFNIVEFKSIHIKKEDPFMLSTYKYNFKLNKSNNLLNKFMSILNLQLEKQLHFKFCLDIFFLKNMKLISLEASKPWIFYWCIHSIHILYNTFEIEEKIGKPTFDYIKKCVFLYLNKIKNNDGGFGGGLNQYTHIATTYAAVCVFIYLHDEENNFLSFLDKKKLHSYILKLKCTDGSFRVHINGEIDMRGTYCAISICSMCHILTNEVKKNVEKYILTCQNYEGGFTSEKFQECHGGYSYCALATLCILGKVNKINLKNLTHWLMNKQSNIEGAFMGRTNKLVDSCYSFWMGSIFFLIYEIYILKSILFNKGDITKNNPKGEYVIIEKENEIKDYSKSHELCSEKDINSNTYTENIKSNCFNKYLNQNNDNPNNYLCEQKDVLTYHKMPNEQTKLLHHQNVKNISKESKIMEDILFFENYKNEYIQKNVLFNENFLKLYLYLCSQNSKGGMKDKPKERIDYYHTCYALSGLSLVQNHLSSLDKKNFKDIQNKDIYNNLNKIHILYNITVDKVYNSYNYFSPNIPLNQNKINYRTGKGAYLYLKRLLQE

| Compound | IC50 [1] [nM] | IC50 [2] [nM] |
| --- | --- | --- |
| Cn1cnc(S(=O)(=O)N(CCN(Cc2cncn2C)c2ccc(C#N)cc2)Cc2ccccc2)c1 [1-Methyl-1H-imidazole-4-sulfonic Acid Benzyl-{2-[(4-cyanophenyl)-(3-methyl-3H-imidazol-4-ylmethyl)amino]ethyl}amide] | 56 |  |
| Cn1cnc(S(=O)(=O)N(CCN(Cc2cncn2C)c2ccc(C#N)cc2)CC2CCN(C(=O)OC(C)(C)C)CC2)c1 [ethylenediamine scaffold, 4] | 3700 | 1.2 |
| Cc1ccccc1S(=O)(=O)N(CCN(Cc1cncn1C)c1ccc(C#N)cc1)CC1CCN(C(=O)OC(C)(C)C)CC1 [ethylenediamine scaffold, 5] |  | 3 |
| Cc1ccccc1S(=O)(=O)N(CCN(Cc1cncn1C)c1ccc(C#N)cc1)Cc1ccccc1 [ethylenediamine scaffold, 7] | 160 | 5 |
| Cn1cncc1CN(CCN(CC1CCN(C(=O)OC(C)(C)C)CC1)S(=O)(=O)c1ccccc1-c1cccc(CCC(=O)O)c1)c1ccc(C#N)cc1 [ethylenediamine scaffold, 10] | 800 | 70 |
